Measurements as given in patent US8093281B2, “Indazoles as glucocorticoid receptor ligands” (Glaxo Group Limited, priority 2005, dated 2012).

These molecules were tested on NFkB activity (assay: Glucocorticoid mediated transrepression of NFkB activity (A549 cells, ELAM promoter alkaline phosphatase reporter, TNFα stimulated)). Details: Homo sapiens, A549, 16 h, Human A549 lung epithelial cells, 3 ng/ml human recombinant TNFα, read-out: pEC50, transrepression of NFkB activity (converted).
Assay type: cell-based
Description: Human A549 lung epithelial cells were engineered to contain a secreted placental alkaline phosphatase gene under the control of the distal region of the NFkB dependent ELAM promoter as previously described in Ray, K. P., Farrow, S., Daly, M., Talabot, F. and Searle, N. “Induction of the E-selectin promoter by interleukin 1 and tumour necrosis factor alpha, and inhibition by glucocorticoids” Biochemical Journal (1997) 328: 707-15.
Compounds were solvated and diluted in DMSO, and transferred directly into assay plates such that the final concentration of DMSO was 0.7%. Following the addition of cells (40K per well), plates were incubated for 1 hr prior to the addition of 3 ng/ml human recombinant TNFα. Following continued incubation for 16 hr, alkaline phosphatase activity was determined by measuring the change in optical density at 405 nm with time following the addition of 0.7 volumes of assay buffer (1 mg/ml p-nitrophenylphosphate dissolved in 1M diethanolamine, 0.28M NaCl, 0.5 mM MgCl2). Dose response curves were constructed from which EC50 values were estimated.

EC50, < 3.16 nM:
CCOC(=O)c1cccc(-n2ncc3c(NCC(O)(CC(C)(C)c4cccc5c4OCC5)C(F)(F)F)cccc32)c1 (racemic) [Example 9, Ethyl 3-(4-{[4-(2,3-dihydro-1-benzofuran-7-yl)-2-hydroxy-4-methyl-2-(trifluoromethyl)pentyl]amino}-1H-indazol-1-yl)benzoate]
CCOC(=O)c1cccc(-n2ncc3c(NCC(O)(CC(C)(C)c4cc(F)ccc4OC)C(F)(F)F)cc(C)cc32)c1 (stereo not drawn) [Example 27, Ethyl 3-(4-{[4-[5-fluoro-2-(methyloxy)phenyl]-2-hydroxy-4-methyl-2-(trifluoromethyl)pentyl]amino}-6-methyl-1H-indazol-1-yl)benzoate]
CC(C)(CC(O)(CNc1cccc2c1cnn2-c1ccc(F)cc1)C(F)(F)F)c1cccc2c1OCC2 (racemic) [Example 11, 4-(2,3-Dihydro-1-benzofuran-7-yl)-1,1,1-trifluoro-2-({[1-(4-fluorophenyl)-1H-indazol-4-yl]amino}methyl)-4-methyl-2-pentanol]
COC(=O)c1cccc(-n2ncc3c(NCC(O)(CC(C)(C)c4cc(F)ccc4OC)C(F)(F)F)cccc32)c1 (racemic) [Example 14, Methyl 3-(4-{[4-[5-fluoro-2-(methyloxy)phenyl]-2-hydroxy-4-methyl-2-(trifluoromethyl)pentyl]amino}-1H-indazol-1-yl)benzoate]
COc1ccc(-n2ncc3c(NCC(O)(CC(C)(C)c4cc(F)ccc4OC)C(F)(F)F)cc(C)cc32)cc1 (stereo not drawn) [Example 19, 1,1,1-Trifluoro-4-[5-fluoro-2-(methyloxy)phenyl]-4-methyl-2-[({6-methyl-1-[4-(methyloxy)phenyl]-1H-indazol-4-yl}amino)methyl]-2-pentanol]
CC(C)(CC(O)(CNc1cccc2c1cnn2-c1ccccc1)C(F)(F)F)c1cccc2c1OCC2 (racemic) [Example 8, 4-(2,3-Dihydro-1-benzofuran-7-yl)-1,1,1-trifluoro-4-methyl-2-{[(1-phenyl-1H-indazol-4-yl)amino]methyl}-2-pentanol]
COc1ccc(F)cc1C(C)(C)CC(O)(CNc1cc(C)cc2c1cnn2-c1ccc(F)cc1F)C(F)(F)F (racemic) [Example 16, 2-({[1-(2,4-Difluorophenyl)-6-methyl-1H-indazol-4-yl]amino}methyl)-1,1,1-trifluoro-4-[5-fluoro-2-(methyloxy)phenyl]-4-methyl-2-pentanol]
COc1ccc(F)cc1C(C)(C)CC(O)(CNc1cc(C)cc2c1cnn2-c1cccc(O)c1)C(F)(F)F (stereo not drawn) [Example 23, 3-(4-{[4-[5-Fluoro-2-(methyloxy)phenyl]-2-hydroxy-4-methyl-2-(trifluoromethyl)pentyl]amino}-6-methyl-1H-indazol-1-yl)phenol]
CC(C)(CC(O)(CNc1cccc2c1cnn2-c1ccc(F)cc1F)C(F)(F)F)c1cccc2c1OCC2 (racemic) [Example 12, 2-({[1-(2,4-Difluorophenyl)-1H-indazol-4-yl]amino}methyl)-4-(2,3-dihydro-1-benzofuran-7-yl)-1,1,1-trifluoro-4-methyl-2-pentanol]
Cc1cc(NC[C@](O)(CC(C)(C)c2cc(F)ccc2O)C(F)(F)F)c2cnn(-c3ccc(F)cc3F)c2c1 [Example 18, 2(R)-2-[3-({[1-(2,4-Difluorophenyl)-6-methyl-1H-indazol-4-yl]amino}methyl)-4,4,4-trifluoro-3-hydroxy-1,1-dimethylbutyl]-4-fluorophenol]
CC(C)(CC(O)(CNc1cccc2c1cnn2-c1ccccc1F)C(F)(F)F)c1cccc2c1OCC2 (racemic) [Example 10, 4-(2,3-Dihydro-1-benzofuran-7-yl)-1,1,1-trifluoro-2-({[1-(2-fluorophenyl)-1H-indazol-4-yl]amino}methyl)-4-methyl-2-pentanol]
COc1ccc(F)cc1C(C)(C)CC(O)(CNc1cc(C)cc2c1cnn2-c1ccccc1)C(F)(F)F (racemic) [Example 15, 1,1,1-Trifluoro-4-[5-fluoro-2-(methyloxy)phenyl]-4-methyl-2-{[(6-methyl-1-phenyl-1H-indazol-4-yl)amino]methyl}-2-pentanol]
CCOC(=O)c1cccc(-n2ncc3c(NCC(O)(CC(C)(C)c4cc(F)ccc4OC)C(F)(F)F)cccc32)c1 (racemic) [Example 6, Ethyl 3-(4-{[4-[5-fluoro-2-(methyloxy)phenyl]-2-hydroxy-4-methyl-2-(trifluoromethyl)pentyl]amino}-1H-indazol-1-yl)benzoate]
COc1ccc(-n2ncc3c(NCC(O)(CC(C)(C)c4cccc5c4OCC5)C(F)(F)F)cccc32)cc1 (racemic) [Example 28, 4-(2,3-Dihydro-1-benzofuran-7-yl)-1,1,1-trifluoro-4-methyl-2-[({1-[4-(methyloxy)phenyl]-1H-indazol-4-yl}amino)methyl]-2-pentanol]
COC(=O)c1cccc(-n2ncc3c(NCC(O)(CC(C)(C)c4cc(F)ccc4OC)C(F)(F)F)cccc32)c1 (single isomer, unassigned) [Example 14-B, Methyl 3-(4-{[4-[5-fluoro-2-(methyloxy)phenyl]-2-hydroxy-4-methyl-2-(trifluoromethyl)pentyl]amino}-1H-indazol-1-yl)benzoate]
COc1ccc(F)cc1C(C)(C)CC(O)(CNc1cccc2c1cnn2-c1ccccc1F)C(F)(F)F (racemic) [Example 1, 1,1,1-Trifluoro-4-[5-fluoro-2-(methyloxy)phenyl]-2-({[1-(2-fluorophenyl)-1H-indazol-4-yl]amino}methyl)-4-methyl-2-pentanol]
COc1cccc(-n2ncc3c(NCC(O)(CC(C)(C)c4cc(F)ccc4OC)C(F)(F)F)cc(C)cc32)c1 (stereo not drawn) [Example 22, 1,1,1-Trifluoro-4-[5-fluoro-2-(methyloxy)phenyl]-4-methyl-2-[({6-methyl-1-[3-(methyloxy)phenyl]-1H-indazol-4-yl}amino)methyl]-2-pentanol]
COc1ccc(F)cc1C(C)(C)CC(O)(CNc1cccc2c1cnn2-c1ccc(F)cc1)C(F)(F)F (single isomer, unassigned) [Example 2-B, 1,1,1-Trifluoro-4-[5-fluoro-2-(methyloxy)phenyl]-2-({[1-(4-fluorophenyl)-1H-indazol-4-yl]amino}methyl)-4-methyl-2-pentanol]
CCOC(=O)c1cccc(-n2ncc3c(NCC(O)(CC(C)(C)c4cc(F)ccc4OC)C(F)(F)F)cccc32)c1 (single isomer, unassigned) [Example 6-B, Ethyl 3-(4-{[4-[5-fluoro-2-(methyloxy)phenyl]-2-hydroxy-4-methyl-2-(trifluoromethyl)pentyl]amino}-1H-indazol-1-yl)benzoate]
COc1ccc(F)cc1C(C)(C)CC(O)(CNc1cccc2c1cnn2-c1ccc(F)cc1)C(F)(F)F (racemic) [Example 2, 1,1,1-Trifluoro-4-[5-fluoro-2-(methyloxy)phenyl]-2-({[1-(4-fluorophenyl)-1H-indazol-4-yl]amino}methyl)-4-methyl-2-pentanol]
COc1ccc(F)cc1C(C)(C)CC(O)(CNc1cccc2c1cnn2-c1ccc(F)cc1F)C(F)(F)F (racemic) [Example 4, 2-({[1-(2,4-Difluorophenyl)-1H-indazol-4-yl]amino}methyl)-1,1′-trifluoro-4-[5-fluoro-2-(methyloxy)phenyl]-4-methyl-2-pentanol]
CC(C)(CC(O)(CNc1cccc2c1cnn2-c1ccncc1)C(F)(F)F)c1cccc2c1OCC2 (racemic) [Example 13, 4-(2,3-Dihydro-1-benzofuran-7-yl)-1,1,1-trifluoro-4-methyl-2-({[1-(4-pyridinyl)-1H-indazol-4-yl]amino}methyl)-2-pentanol]
COc1ccc(F)cc1C(C)(C)CC(O)(CNc1cccc2c1cnn2-c1ccccc1F)C(F)(F)F (single isomer, unassigned) [Example 1-A, 1,1,1-Trifluoro-4-[5-fluoro-2-(methyloxy)phenyl]-2-({[1-(2-fluorophenyl)-1H-indazol-4-yl]amino}methyl)-4-methyl-2-pentanol]
COc1ccc(F)cc1C(C)(C)CC(O)(CNc1cc(C)cc2c1cnn2-c1ccccc1F)C(F)(F)F (racemic) [Example 25, 1,1,1-Trifluoro-4-[5-fluoro-2-(methyloxy)phenyl]-2-({[1-(2-fluorophenyl)-6-methyl-1H-indazol-4-yl]amino}methyl)-4-methyl-2-pentanol]
